Columns and labels:
Type in all cases: in vivo
C57B1/6J mice [1] = assay: Organ weights (liver, kidneys, testes, epididymides) of mice after a single subcutaneous injection of TCDD
Protocol: Male C57B1/6J mice of 5 weeks old having the average weight of 18-22 g which had been bred in CRJ (Charles River in Japan) were purchased and used in this example as experimental animals. Those mice were acclimated under the constant breeding condition, i.e. the temperature of 24±1° C., the humidity of 60±10% and the light and darkness cycle of 12 hours, for one week and thereafter, utilized in the experiment.
(§1) 2,3,7,8-tetrachlorodibenzo-p-dioxin (TCDD) dissolved in toluene (purity of 95% or more as a result of gas chromatography analysis), manufactured by Chem. Services Inc. in USA, was volatilized with nitrogen to obtain powder. The obtained powder was dissolved in a mixed solvent containing acetone and corn oil with a volume ratio of 1:6. The resulting solution each containing 110, 27.5 and 6.9 μg/kg of TCDD was subcutaneously injected to mice at a volume of 5 ml per body weight. […] The mice were supplied with the feed from 10 days before (pre-administration) to 60 days after administration of TCDD (post-administration).
(§2) Upon completion of the experiment for 60 days, the experimental animals were fasted for 24 hours and anesthetized with ether. Then, they were abdominally incised and blood was gathered from abdominal vena cava. They were sacrificed by the release of blood. Liver, kidneys, testes and epididymides were extracted and all the extracted organs were weighed. Only the testes were separately kept and observed under optical and electron microscopes. For biochemical finding test, serum was separated from blood with a centrifuge and the separated serum was analyzed with an automated blood biochemical analyzer, Dimension (Dupont, USA). Blood was put to another blood gathering bottle and then, analyzed with an automated blood cell analyzer, Celldyn (Abbott, USA).
The results are expressed as Mean±Standard Deviation values. For statistical analysis of the body weight, feed and water uptake, biochemical findings, hematological findings and the weight of organ in an acute toxicity test, verification was performed by one way analysis of variance (ANOVA) in case of equal distribution. In case significance was recognized in ANOVA, the Student's t-test was performed in the levels of p<0.05 and p<0.01.
The organs, i.e. liver, kidneys, testes and epididymides, were weighed and the results are shown in the following.

C57B1/6J mice [2] = assay: Optical microscopy of testes (histopathological findings)
Protocol: as §1, §2
(§3) The extracted testes were fixed in 10% neutralized formalin buffer for 24 hours and washed with the flowing water. It was subsequently dehydrated with ethanol and cleared with xylene and then, embedded with paraffin. It was sectioned with microtome (microm is HM 440E) to a thickness of 2-3 μm and then, double stained with hematoxylin and eosin to observe under an optical microscope.

C57B1/6J mice [3] = assay: Johnsen's score of the testis tissue (level of spermatogenesis)
Protocol: as §1, §2, §3
For evaluation of the level of spermatogenesis, Johnsen's score was determined from 10 to 1 based on the presence or absence of principal cells arranged according to maturation of spermatogenesis. The basis of Johnsen's score in testes was the following:
10: Perfect spermatogenesis having many sperms, organization of embryonic epithelial cells with a constant thickness, and opened lumen
9: Despite many sperms, significant separation of embryonic epithelial cells from the basement membrane and disruption thereof, or loss of lumen
8: Presence of 5 to less than 10 sperms in the section
7: Many sperm cells without sperms
6: 5 to less than 10 sperm cells without sperms
5: Several or many spermatocytes without sperms and sperm cells
4: Less than 5 spermatocytes without sperms and sperm cells
3: Presence of only spermatogonia as reproductive cells
2: Presence of only Sertoli cells without any reproductive cells
1: No cells in the section of seminiferous tubules

[4] = TCDD 27.5 μg/kg + UDCA 0.25 wt %
[5] = TCDD 27.5 μg/kg + UDCA 0.5 wt %
[6] = TCDD 110.0 μg/kg + UDCA 0.125 wt %
[7] = TCDD 110.0 μg/kg + UDCA 0.25 wt %
[8] = TCDD 110.0 μg/kg + UDCA 0.5 wt %

C[C@H](CCC(=O)O)[C@H]1CC[C@H]2[C@@H]3[C@@H](O)C[C@@H]4C[C@H](O)CC[C@]4(C)[C@H]3CC[C@]12C [UDCA, 3α, 7β-dihydroxy-5β-cholanoic acid]
Left kidney Weight (C57B1/6J mice [1]; [4]): 0.125 ± 0.010 g | Left testis Relative weight (C57B1/6J mice [1]; [4]): 0.293 ± 0.032 % | Left testis Weight (C57B1/6J mice [1]; [4]): 0.072 ± 0.007 g | Liver Relative weight (C57B1/6J mice [1]; [4]): 4.428 ± 0.198% | Liver Weight (C57B1/6J mice [1]; [4]): 1.088 ± 0.030 g | Right epididymis Relative weight (C57B1/6J mice [1]; [4]): 0.124 ± 0.020% | Right epididymis Weight (C57B1/6J mice [1]; [4]): 0.030 ± 0.005 g | Right kidney Relative weight (C57B1/6J mice [1]; [4]): 0.508 ± 0.029 % | Right kidney Weight (C57B1/6J mice [1]; [4]): 0.125 ± 0.007 g | Right testis Relative weight (C57B1/6J mice [1]; [4]): 0.290 ± 0.030 % | Right testis Weight (C57B1/6J mice [1]; [4]): 0.071 ± 0.007 g | Left epididymis Relative weight (C57B1/6J mice [1]; [5]): 0.115 ± 0.015% | Left epididymis Weight (C57B1/6J mice [1]; [5]): 0.025 ± 0.004 g | Left kidney Relative weight (C57B1/6J mice [1]; [5]): 0.539 ± 0.040 % | Left kidney Weight (C57B1/6J mice [1]; [5]): 0.119 ± 0.011 g | Left testis Relative weight (C57B1/6J mice [1]; [5]): 0.304 ± 0.040 % | Left testis Weight (C57B1/6J mice [1]; [5]): 0.067 ± 0.011 g | Liver Relative weight (C57B1/6J mice [1]; [5]): 4.773 ± 0.250% | Liver Weight (C57B1/6J mice [1]; [5]): 1.057 ± 0.069 g | Right epididymis Relative weight (C57B1/6J mice [1]; [5]): 0.132 ± 0.041% | Right epididymis Weight (C57B1/6J mice [1]; [5]): 0.029 ± 0.011 g | Right kidney Relative weight (C57B1/6J mice [1]; [5]): 0.538 ± 0.045 % | Right kidney Weight (C57B1/6J mice [1]; [5]): 0.119 ± 0.009 g | Right testis Relative weight (C57B1/6J mice [1]; [5]): 0.301 ± 0.030 % | Right testis Weight (C57B1/6J mice [1]; [5]): 0.067 ± 0.007 g | Liver Relative weight (C57B1/6J mice [1]; [6]): 5.118% | Liver Weight (C57B1/6J mice [1]; [6]): 0.8153 g | Left epididymis Relative weight (C57B1/6J mice [1]; [7]): 0.122% | Left epididymis Weight (C57B1/6J mice [1]; [7]): 0.0195 g | Left kidney Relative weight (C57B1/6J mice [1]; [7]): 0.6711% | Left kidney Weight (C57B1/6J mice [1]; [7]): 0.1069 g | Left testis Relative weight (C57B1/6J mice [1]; [7]): 0.2153% | Left testis Weight (C57B1/6J mice [1]; [7]): 0.343 g | Liver Relative weight (C57B1/6J mice [1]; [7]): 8.600 ± 3.276% | Liver Weight (C57B1/6J mice [1]; [7]): 1.379 ± 0.327 g | Right epididymis Relative weight (C57B1/6J mice [1]; [7]): 0.080% | Right epididymis Weight (C57B1/6J mice [1]; [7]): 0.0128 g | Right kidney Relative weight (C57B1/6J mice [1]; [7]): 0.6045% | Right kidney Weight (C57B1/6J mice [1]; [7]): 0.0963 g | Right testis Relative weight (C57B1/6J mice [1]; [7]): 0.2279% | Left epididymis Relative weight (C57B1/6J mice [1]; [8]): 0.114 ± 0.025% | Left epididymis Weight (C57B1/6J mice [1]; [8]): 0.021 ± 0.007 g | Left kidney Relative weight (C57B1/6J mice [1]; [8]): 0.704 ± 0.199% | Left kidney Weight (C57B1/6J mice [1]; [8]): 0.121 ± 0.022 g | Left testis Relative weight (C57B1/6J mice [1]; [8]): 0.316 ± 0.074% | Left testis Weight (C57B1/6J mice [1]; [8]): 0.057 ± 0.019 g | Right epididymis Relative weight (C57B1/6J mice [1]; [8]): 0.127 ± 0.024% | Right epididymis Weight (C57B1/6J mice [1]; [8]): 0.024 ± 0.009 g | Right kidney Relative weight (C57B1/6J mice [1]; [8]): 0.659 ± 0.133% | Right kidney Weight (C57B1/6J mice [1]; [8]): 0.113 ± 0.010 g | Right testis Relative weight (C57B1/6J mice [1]; [8]): 0.314 ± 0.067% | Right testis Weight (C57B1/6J mice [1]; [8]): 0.057 ± 0.019 g | seminiferous tubules, optical microphotograph (C57B1/6J mice [2]; TCDD 27.5 μg/kg + 0.5% by weight of UDCA, FIG. 3): normal seminiferous tubules were observed | histopathological findings of testes under an optical microscope (C57B1/6J mice [2]; group exposed to UDCA (with TCDD)): seminiferous tubules were found to have the similar shape to that of the solvent control | Johnsen's score of the testis tissue (C57B1/6J mice [3]; TCDD 6.9 μg/kg + UDCA 0.125 wt % in feed): 8.7 ± 0.09 | Johnsen's score of the testis tissue (C57B1/6J mice [3]; TCDD 6.9 μg/kg + UDCA 0.250 wt % in feed): 8.84 ± 0.10 | Johnsen's score of the testis tissue (C57B1/6J mice [3]; TCDD 6.9 μg/kg + UDCA 0.500 wt % in feed): 9.10 ± 0.08 | Johnsen's score of the testis tissue (C57B1/6J mice [3]; TCDD 27.5 μg/kg + UDCA 0.125 wt % in feed): 8.40 ± 0.10 | Johnsen's score of the testis tissue (C57B1/6J mice [3]; TCDD 27.5 μg/kg + UDCA 0.250 wt % in feed): 8.42 ± 0.08 | Johnsen's score of the testis tissue (C57B1/6J mice [3]; TCDD 27.5 μg/kg + UDCA 0.500 wt % in feed): 8.81 ± 0.07

Reference: patent publication US20040029965A1, “Formulations for reducing or eliminating toxicity of enviromental hormones containing ursodeoxycholic acid” (priority 2000, published 2004)
